PMC10208956, “Microbial peptides activate tumour-infiltrating lymphocytes in glioblastoma” (Nature, 2023)

Columns and labels:
Format in all cases: cell-based, human
[1] = tested on: bulk TILs (patient 1635WI); assay: Cytokine and chemokine secretion of bulk TILs stimulated with IPdBPs; parameters: key to CD40 Ligand / Flt-3 Ligand / GM-CSF / Granzyme B / IFN-α / IFN-γ / IL-1rα / IL-1α / IL-1β / IL-2 / IL-3 / IL-4 / IL-5 / IL-6 / IL-7 / IL-10 / IL-12p70 / IL-13 / IL-15 / IL-17A / IL-33 / TNF-α / RANTES: pg/mL, negative-control amount subtracted; CXCL2/GROβ / CXCL10/IP-10 / CCL2/MCP-1 / CCL3/MIP-1α / CCL4/MIP-1β: unit not given beside the values; settings: secretion by bulk TILs after peptide stimulation; sheet 1e
Source text: Fig. 1 Elution of HLA class II-presented bacterial peptides from 19 glioblastomas and the stimulatory effect of IPdBPs on bulk TILs. a, Schematic of the immunopeptidome analyses of glioblastoma tissue, from which eluted peptides were annotated using the UniProt bacteria database (1). TILs or peripheral memory T cells were stimulated with IPdBPs (2 and 3). LC–MS, liquid chromatography–mass spectrometry; PBMC, peripheral blood mononuclear cell. The images in panel a were created using BioRender (https://biorender.com). b, Number of unique IPdBPs in patients with glioblastoma (n = 19) (data from patient 1635WI contains both primary and recurrent tumours together), with 344 unique IPdBPs identified (left). These peptides originated from 255 and 199 unique proteins and bacteria, respectively (3 technical replicates). […] As a control, peptidome data were also annotated using human protein database to identify eluted self-peptides. As shown, most of HLA class II-bound peptides are self-(human) peptides. IPdBPs of primary (bottom left, n = 18) and recurrent (bottom right, n = 23) tumours were separately annotated to their source bacteria at the phylum level. d, Bulk TILs (patient 1635WI) were stimulated with IPdBPs (See Supplementary Table 8), each in five replicate wells, and proliferation was measured after 5 days via ^3H-thymidine incorporation. […] The data are expressed as the mean value of all wells ± s.e.m. SIN3A* peptide was used as a positive control as TILs recognize this tumour antigen. T cells with APCs without any stimuli were used as a negative control. e, Heatmap of cytokine and chemokine secretion of TILs stimulated with three IPdBPs, which weakly stimulated proliferation. The secretion of each cytokine and chemokine was calculated by subtracting the corresponding cytokine and chemokine amount (pg ml^−1) of the negative control. TILs with APCs without any stimuli were used as a negative control. Also see Extended Data Fig. 1. Source data
(§1) Supernatants from each experiment were harvested a day before adding thymidine and frozen at −20 °C. Cytokines were measured using ELISA for human IFNγ ELISA MAX (BioLegend), human GM-CSF DuoSet ELISA (R&D Systems) and bead-based assays. A Synergy H1 hybrid multi-mode reader (Agilent) was used to measure the absorbance. The LEGENDplex Multi-analyte Flow Assay kit (BioLegend) is a 13-plex human TH cytokine panel, which includes IFNγ, TNF, IL-2, IL-4, IL-5, IL-6, IL-9, IL-10, IL-13, IL-17A, IL-17F, IL-21 and IL-22. […] LSR Fortessa Flow Cytometer (BD Biosciences) was used to measure cytokines, and data were analysed using FlowJo (Tree Star). The Human XL Cytokine Luminex Performance Assay Fixed Panel (R&D Systems) contains 45 analytes covering a broad range of various chemokines and cytokines.

TCC88 = assay: Cytokine and chemokine secretion of TCC88 after peptide stimulation; settings: TCC88 supernatant after peptide stimulation; no peptide control subtracted; Fig. 3e
Source text: Fig. 3 Bacteria-derived and microbiota-derived peptides can stimulate TCC88 as well as the tumour antigen. a, Peptides with the highest predicted stimulatory scores were identified by searching various databases (see Methods). Numbers of unique 10-mer peptides within each database, synthesized peptides, TCC88 stimulatory peptides and the corresponding percentage of stimulatory peptides within each database are shown. […] Cytokine and chemokine secretion of TCC88 was examined and compared upon stimulation with these three different antigens. A specific amount of each cytokine and chemokine (pg ml^−1) was calculated by subtracting the cytokines in the negative control cultures (no peptide control). f, Cytotoxicity of TCC88 against the autologous tumour cell line after stimulation with 2 µM of SIN3A* and HGM3 (data represent the mean percentage of two replicate wells). E:T, effector to target. g, TCC88 was tested with HGM3 (10 µM) or SIN3A* (10 µM) peptides or both together (each 10 µM), and ^3H-thymidine incorporation was measured after 3 days (data represent the mean SI value of three replicate wells ± s.e.m.). Also see Extended Data Figs. 3 and 4. Source data
as §1

[2] = tested on: bacteria/microbiota-reactive CFSEdim CD4+ TILs; assay: Proliferation of expanded CFSEdim CD4+ TILs that responded to the bacteria/microbiota peptide pool; settings: 5 days; 4 replicate wells; Fig. 4d

## Ac-QPVEFNHAIHYVN-NH2 [SIN3A*]
[1]
  CCL2/MCP-1: 2816.44
  CCL3/MIP-1α: 29.38
  CCL4/MIP-1β: 288.41
  CCL11/Eotaxin: 0
  CCL19/MIP-3β: 3.84
  CCL20/MIP-3α: 5.69
  CD40 Ligand: 1225.7
  CXCL1/GROα: 401.05
  CXCL2/GROβ: 208.21
  CXCL8/IL-8: 3621.56
  CXCL10/IP-10: 192.55
  Flt-3 Ligand: 87.97
  GM-CSF: 322.89
  Granzyme B: 136.59
  IFN-α: 1.52
  IFN-γ: 41.34
  IL-1rα: 1593.54
  IL-1α: 6.01
  IL-1β: 5.99
  IL-2: 5.92
  IL-3: 55.24
  IL-4: 3.08
  IL-5: 16.46
  IL-6: 23.1
  IL-7: 0.95
  IL-10: 62.69
  IL-12p70: 0
  IL-13: 67.23
  IL-15: 2.11
  IL-17A: 2.07
  IL-17E/IL-25: 0
  IL-33: 6.61
  RANTES: 135
  TNF-α: 366.07
TCC88
  CCL20/MIP-3α: 15.37 pg/mL
  CD40 Ligand: 2926.92 pg/mL
  CXCL1/GROα: 71.75 pg/mL
  CXCL2/GROβ: 125.05 pg/mL
  CXCL8/IL-8: 0 pg/mL
  CXCL10/IP-10: 22.77 pg/mL
  Flt-3 Ligand: 138.99 pg/mL
  Fractalkine: 649.3 pg/mL
  GM-CSF: 12306.4 pg/mL
  Granzyme B: 3726.29 pg/mL
  IFN-α: 6.21 pg/mL
  IFN-γ: 2158.92 pg/mL
  IL-1rα: 2936.96 pg/mL
  IL-1α: 18.71 pg/mL
  IL-1β: 19.49 pg/mL
  IL-2: 1202.18 pg/mL
  IL-3: 486.43 pg/mL
  IL-4: 244.81 pg/mL
  IL-5: 13.04 pg/mL
  IL-6: 272.8 pg/mL
  IL-7: 2.58 pg/mL
  IL-10: 469.8 pg/mL
  IL-12p70: 34.04 pg/mL
  IL-13: 1544.08 pg/mL
  IL-15: 2.67 pg/mL
  IL-17A: 3.91 pg/mL
  IL-17E/IL-25: 6.04 pg/mL
  IL-33: 26.68 pg/mL
  TNF-α: 10260.2 pg/mL
[2]
  recognition by CD4+ TILs pre-stimulated with the bacteria/microbiota peptide pool, by proliferation and/or GM-CSF secretion (in words): recognized
